From patent publication US9884063B2, “Amido-substituted azole compounds” (Bayer Pharma Aktiengesellschaft, priority 2014, dated 2018)

Biological target: T1, TNKS1 (Homo sapiens, UniProt O95271)
T1 sequence (O95271 1-1327): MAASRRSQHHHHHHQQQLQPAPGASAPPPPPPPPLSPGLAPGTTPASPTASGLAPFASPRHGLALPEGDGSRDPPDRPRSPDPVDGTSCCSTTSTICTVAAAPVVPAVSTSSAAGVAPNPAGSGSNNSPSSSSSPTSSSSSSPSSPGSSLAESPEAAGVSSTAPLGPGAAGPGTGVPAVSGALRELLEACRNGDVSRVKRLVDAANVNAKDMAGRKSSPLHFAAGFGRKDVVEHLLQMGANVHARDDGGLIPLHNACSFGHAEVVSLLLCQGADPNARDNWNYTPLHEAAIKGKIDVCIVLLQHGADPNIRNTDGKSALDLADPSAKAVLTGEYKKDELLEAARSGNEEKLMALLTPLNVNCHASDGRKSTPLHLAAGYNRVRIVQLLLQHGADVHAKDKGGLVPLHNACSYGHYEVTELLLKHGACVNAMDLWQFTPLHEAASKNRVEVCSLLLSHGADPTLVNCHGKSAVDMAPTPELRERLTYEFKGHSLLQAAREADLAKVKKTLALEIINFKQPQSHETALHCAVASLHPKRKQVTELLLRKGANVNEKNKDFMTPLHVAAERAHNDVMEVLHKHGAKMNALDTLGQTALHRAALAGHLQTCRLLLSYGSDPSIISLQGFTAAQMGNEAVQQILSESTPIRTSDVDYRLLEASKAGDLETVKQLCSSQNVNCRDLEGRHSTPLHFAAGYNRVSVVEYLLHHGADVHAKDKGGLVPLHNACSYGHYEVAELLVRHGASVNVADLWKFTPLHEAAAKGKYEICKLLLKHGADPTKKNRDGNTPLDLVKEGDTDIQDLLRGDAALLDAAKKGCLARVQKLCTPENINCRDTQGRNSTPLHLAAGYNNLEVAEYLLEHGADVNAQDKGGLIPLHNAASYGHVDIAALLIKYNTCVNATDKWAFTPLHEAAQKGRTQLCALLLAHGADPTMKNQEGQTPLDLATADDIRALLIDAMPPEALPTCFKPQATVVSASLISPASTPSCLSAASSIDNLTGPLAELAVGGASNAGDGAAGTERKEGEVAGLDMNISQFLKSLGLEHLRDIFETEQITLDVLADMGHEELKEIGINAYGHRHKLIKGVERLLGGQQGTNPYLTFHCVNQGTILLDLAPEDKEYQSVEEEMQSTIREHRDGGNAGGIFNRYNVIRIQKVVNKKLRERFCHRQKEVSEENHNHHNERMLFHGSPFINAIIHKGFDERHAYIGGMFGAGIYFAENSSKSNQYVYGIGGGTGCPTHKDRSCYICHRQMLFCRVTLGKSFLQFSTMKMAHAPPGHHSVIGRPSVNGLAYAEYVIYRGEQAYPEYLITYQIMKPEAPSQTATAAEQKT
Test: Modified TNKS1 Assay 3 (BPS kit #80573, biotin-NAD+, 96 well)
Assay type: biochemical
Conditions: human TNKS1, BPS kit #80573, 96 well
How it was run: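 Chemiluminescent assay of TNKS1-catalysed ribosylation of a protein substrate with biotin-labelled NAD+, detected via streptavidin-HRP; run per kit protocol. Inhibition lowers the signal, and IC50 is the compound concentration halving the normalised readout.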

Row | IC50 | SMILES
1 | 7 nM | CC(CN1CCOCC1)NC(=O)c1[nH]cnc1C(=O)Nc1ccc(NC(=O)c2ccc(F)cc2Cl)cc1 (single isomer, unassigned; enantiomer 2) [Example 270, N^4-{4-[(2-chloro-4-fluorobenzoyl)amino]phenyl}-N^5-[1-(morpholin-4-yl)propan-2-yl]-1H-imidazole-4,5-dicarboxamide (enantiomer 2)]
2 | 2 nM | CS(=O)(=O)c1ccc(C(=O)Nc2ccc(NC(=O)c3[nH]cnc3C(=O)NCCN3CCCCC3)cc2)c(Cl)c1 [Example 53, N^5-(4-{[2-chloro-4-(methylsulfonyl)benzoyl]amino}phenyl)-N^4-[2-(piperidin-1-yl)ethyl]-1H-imidazole-4,5-dicarboxamide]
3 | 140 nM | CNC(=O)c1nc[nH]c1C(=O)Nc1ccc(NC(=O)c2ccc(F)cc2I)cc1 [Example 61, N^5-{4-[(4-fluoro-2-iodobenzoyl)amino]phenyl}-N^4-methyl-1H-imidazole-4,5-dicarboxamide]
4 | 5 nM | Cc1nc(C(=O)Nc2ccc(NC(=O)c3ccc(F)cc3Cl)cc2)c(C(=O)NCCN2CCCCC2)[nH]1 [Example 67, N^4-{4-[(2-chloro-4-fluorobenzoyl)amino]phenyl}-2-methyl-N^5-[2-(piperidin-1-yl)ethyl]-1H-imidazole-4,5-dicarboxamide]

Continued, molecule first:

Row | SMILES | IC50
5 | CN(C)CCNC(=O)c1nc[nH]c1C(=O)Nc1ccc(NC(=O)c2ccc(F)cc2Cl)cc1 [Example 22, N^4-{4-[(2-chloro-4-fluorobenzoyl)amino]phenyl}-N^5-[2-(dimethylamino)ethyl]-1H-imidazole-4,5-dicarboxamide] | 30 nM
6 | O=C(Nc1ccc(NC(=O)c2[nH]cnc2C(=O)NCCN2CCCCC2)cc1)c1ccc(F)cc1Cl [Example 32, N^4-{4-[(2-chloro-4-fluorobenzoyl)amino]phenyl}-N^5-[2-(piperidin-1-yl)ethyl]-1H-imidazole-4,5-dicarboxamide] | 8 nM
7 | O=C(Nc1ccc(NC(=O)c2[nH]cnc2C(=O)NC2CC2)cc1)c1cc(F)c(F)cc1Cl [Example 51, N^5-{4-[(2-chloro-4,5-difluorobenzoyl)amino]phenyl}-N^4-cyclopropyl-1H-imidazole-4,5-dicarboxamide] | 230 nM
8 | O=C(Nc1ccc(NC(=O)c2[nH]cnc2C(=O)N2CC3(COC3)C2)cc1)c1cc(F)c(F)cc1Cl [Example 52, N-{4-[(2-chloro-4,5-difluorobenzoyl)amino]phenyl}-4-(2-oxa-6-azaspiro[3.3]hept-6-ylcarbonyl)-1H-imidazole-5-carboxamide] | > 500 nM
9 | CNC(=O)c1nc[nH]c1C(=O)Nc1ccc(NC(=O)c2ccc(S(C)(=O)=O)cc2Cl)cc1 [Example 55, N^5-(4-{[2-chloro-4-(methylsulfonyl)benzoyl]amino}phenyl)-N^4-methyl-1H-imidazole-4,5-dicarboxamide] | 30 nM
10 | CNC(=O)c1nc[nH]c1C(=O)Nc1ccc(NC(=O)c2ccc(F)cc2Br)cc1 [Example 56, N^5-{4-[(2-bromo-4-fluorobenzoyl)amino]phenyl}-N^4-methyl-1H-imidazole-4,5-dicarboxamide] | 90 nM
11 | C[C@@H]1CCCCN1CCNC(=O)c1[nH]cnc1C(=O)Nc1ccc(NC(=O)c2ccc(F)cc2Cl)cc1 [Example 267, N^4-{4-[(2-chloro-4-fluorobenzoyl)amino]phenyl}-N^5-{2-[(2R)-2-methylpiperidin-1-yl]ethyl}-1H-imidazole-4,5-dicarboxamide] | 20 nM
12 | C[C@@H]1CCCN(CCNC(=O)c2[nH]cnc2C(=O)Nc2ccc(NC(=O)c3ccc(F)cc3Cl)cc2)C1 [Example 278, N^4-{4-[(2-chloro-4-fluorobenzoyl)amino]phenyl}-N^5-{2-[(3R)-3-methylpiperidin-1-yl]ethyl}-1H-imidazole-4,5-dicarboxamide] | < 0.5 nM
